According to patent US12214092B2, “Systems and methods for treating biological fluids” (Cerus Corporation, priority 2017, dated 2025):

Experiments:
[1] = test system: P. acnes; experiment: Amotosalen and UV light (265-385 nm LEDs) treatment of P. acnes in plasma, colony forming unit assay; format: cell-based; details: 15 μM amotosalen, ~6.4 J/cm^2, plasma
Text: This system comprised single arrays facing (e.g., opposing) a platform positioned for the illumination of biological fluids placed on the platform (see e.g., FIG. 5). System controls provided for adjustment of the LEDs during treatment of the biological fluid samples, controlling both the timing and intensity of illumination by the LEDs to achieve a desired light UV light dose. Evaluation of photochemical conversion, photoproduct formation, pathogen inactivation, and plasma and/or platelet quality parameters are performed for each light source wavelength as described previously. In one study using the device, photochemical inactivation of various bacteria were tested for each of the above-referenced LEDs together with amotosalen. The bacteria included E. coli (Gram negative), S. epidermidis (Gram positive), and P. acnes (anaerobe). As there are known germicidal effects of ultraviolet light with wavelengths in the UVC and UVB range, the study was controlled to determine for each LED wavelength the total inactivation levels, as well as inactivation levels specifically resulting from the UV light (without added amotosalen) or the photochemical treatment process itself.

[2] = test system: platelets; experiment: Platelet quality, platelets in 100% plasma, amotosalen 30-110 μM, 340 nm device ~7.2 J/cm^2
Procedure: Multiple donor platelet units in 10000 plasma (5 units, ˜278-391 mL) were pooled and split into 5 units of ˜285 mL each, to be used as an untreated control, or treated with amotosalen at different concentrations, with ultraviolet A illumination using the 340 nm device. Amotosalen was added to a concentration of 30, 60, 90 or 110 μM, then pre-illumination (pre-UV) samples were removed for analysis, and the remainder of the units subjected to illumination at ˜7.2 J/cm^2. Post-illumination (Post-UV) samples were then removed for post-treatment analysis.

## Cc1oc2c(C)c3oc(=O)cc(C)c3cc2c1COCCN [S-59, 3-(2-aminoethoxymethyl)-2,5,9-trimethylfuro[3,2-g]chromen-7-one]
[1]; 265 nm
  Log reduction from S-59: 1.60 log
  Log reduction total: 6.03 log
[1]; 280 nm
  Log reduction from S-59: 0.71 log
  Log reduction total: 1.09 log
[1]; 310 nm
  Log reduction from S-59: 5.67 log
  Log reduction total: 6.99 log
[1]; 325 nm
  Log reduction from S-59: 6.54 log
  Log reduction total: 6.69 log
[1]; 340 nm
  Log reduction from S-59: 6.78 log
  Log reduction total: 6.99 log
[1]; 365 nm
  Log reduction from S-59: 6.67 log
  Log reduction total: 6.99 log
[1]; 385 nm
  Log reduction from S-59: 1.64 log
  Log reduction total: 1.97 log
[2]; 30 μM, D3
  Glucose: 14.9 mmol/L
  LDH: 14.5 LDH IU/10^11 platelets
  Lactate: 6.9 mmol/L
  Platelet counts: 1155 x10^3 cells/μL
  Platelet lysis: 5.22%
  pCO2 at 37° C.: 38.1 mm Hg
  pH at 22° C.: 7.43
  pH at 37° C.: 7.21
  pO2 at 37° C.: 74.6 mm Hg
[2]; 30 μM, D7
  Glucose: 11.9 mmol/L
  LDH: 17.4 LDH IU/10^11 platelets
  Lactate: 12.1 mmol/L
  Platelet counts: 1155 x10^3 cells/μL
  Platelet lysis: 6.10%
  pCO2 at 37° C.: 31.2 mm Hg
  pH at 22° C.: 7.32
  pH at 37° C.: 7.10
  pO2 at 37° C.: 78.5 mm Hg
[2]; 30 μM, Post-UV
  Glucose: 15.9 mmol/L
  LDH: 15.0 LDH IU/10^11 platelets
  Lactate: 5.7 mmol/L
  Platelet counts: 1115 x10^3 cells/μL
  Platelet lysis: 5.31%
  pCO2 at 37° C.: 50.2 mm Hg
  pH at 22° C.: 7.37
  pH at 37° C.: 7.15
  pO2 at 37° C.: 13.9 mm Hg
[2]; 30 μM, Pre-UV
  Glucose: 16.0 mmol/L
  LDH: 13.7 LDH IU/10^11 platelets
  Lactate: 5.4 mmol/L
  Platelet counts: 1200 x10^3 cells/μL
  Platelet lysis: 4.92%
  pCO2 at 37° C.: 52.4 mm Hg
  pH at 22° C.: 7.36
  pH at 37° C.: 7.14
  pO2 at 37° C.: 28.6 mm Hg
[2]; 60 μM, D3
  Glucose: 15.0 mmol/L
  LDH: 13.9 LDH IU/10^11 platelets
  Lactate: 6.8 mmol/L
  Platelet counts: 1152 x10^3 cells/μL
  Platelet lysis: 5.15%
  pCO2 at 37° C.: 38.1 mm Hg
  pH at 22° C.: 7.43
  pH at 37° C.: 7.20
  pO2 at 37° C.: 65.8 mm Hg
[2]; 60 μM, D7
  Glucose: 11.6 mmol/L
  LDH: 36.5 LDH IU/10^11 platelets
  Lactate: 11.8 mmol/L
  Platelet counts: 1041 x10^3 cells/μL
  Platelet lysis: 11.82%
  pCO2 at 37° C.: 31.2 mm Hg
  pH at 22° C.: 7.32
  pH at 37° C.: 7.09
  pO2 at 37° C.: 78.0 mm Hg
[2]; 60 μM, Post-UV
  Glucose: 15.9 mmol/L
  LDH: 14.3 LDH IU/10^11 platelets
  Lactate: 5.6 mmol/L
  Platelet counts: 1117 x10^3 cells/μL
  Platelet lysis: 5.10%
  pCO2 at 37° C.: 49.2 mm Hg
  pH at 22° C.: 7.37
  pH at 37° C.: 7.15
  pO2 at 37° C.: 20.4 mm Hg
[2]; 60 μM, Pre-UV
  Glucose: 16.2 mmol/L
  LDH: 13.6 LDH IU/10^11 platelets
  Lactate: 5.4 mmol/L
  Platelet counts: 1160 x10^3 cells/μL
  Platelet lysis: 4.71%
  pCO2 at 37° C.: 52.4 mm Hg
  pH at 22° C.: 7.36
  pH at 37° C.: 7.14
  pO2 at 37° C.: 32.7 mm Hg
[2]; 90 μM, D3
  Glucose: 14.9 mmol/L
  Lactate: 7.3 mmol/L
  Platelet counts: 1157 x10^3 cells/μL
  Platelet lysis: 4.88%
  pCO2 at 37° C.: 40.3 mm Hg
  pH at 22° C.: 7.39
  pH at 37° C.: 7.17
  pO2 at 37° C.: 82.2 mm Hg
[2]; 90 μM, D7
  Glucose: 10.6 mmol/L
  Lactate: 13.6 mmol/L
  Platelet counts: 1199 x10^3 cells/μL
  Platelet lysis: 5.42%
  pCO2 at 37° C.: 33.5 mm Hg
  pH at 22° C.: 7.23
  pH at 37° C.: 7.00
  pO2 at 37° C.: 87.9 mm Hg
[2]; 90 μM, Post-UV
  Glucose: 15.9 mmol/L
  Lactate: 5.7 mmol/L
  Platelet counts: 1115 x10^3 cells/μL
  Platelet lysis: 5.13%
  pCO2 at 37° C.: 48.5 mm Hg
  pH at 22° C.: 7.37
  pH at 37° C.: 7.15
  pO2 at 37° C.: 24.1 mm Hg
[2]; 90 μM, Pre-UV
  Glucose: 15.9 mmol/L
  Lactate: 5.3 mmol/L
  Platelet counts: 1165 x10^3 cells/μL
  Platelet lysis: 4.97%
  pCO2 at 37° C.: 50.8 mm Hg
  pH at 22° C.: 7.37
  pH at 37° C.: 7.14
  pO2 at 37° C.: 54.6 mm Hg
[2]; 110 μM, D3
  Glucose: 14.7 mmol/L
  LDH: 17.0 LDH IU/10^11 platelets
  Lactate: 7.3 mmol/L
  Platelet counts: 1103 x10^3 cells/μL
  Platelet lysis: 5.90%
  pCO2 at 37° C.: 38.6 mm Hg
  pH at 22° C.: 7.40
  pH at 37° C.: 7.18
  pO2 at 37° C.: 69.9 mm Hg
[2]; 110 μM, D7
  Glucose: 10.4 mmol/L
  LDH: 16.0 LDH IU/10^11 platelets
  Lactate: 13.8 mmol/L
  Platelet counts: 1153 x10^3 cells/μL
  Platelet lysis: 6.13%
  pCO2 at 37° C.: 31.7 mm Hg
  pH at 22° C.: 7.24
  pH at 37° C.: 7.01
  pO2 at 37° C.: 90.5 mm Hg
[2]; 110 μM, Post-UV
  Glucose: 16.0 mmol/L
  LDH: 12.0 LDH IU/10^11 platelets
  Lactate: 5.4 mmol/L
  Platelet counts: 1239 x10^3 cells/μL
  Platelet lysis: 4.63%
  pCO2 at 37° C.: 48.1 mm Hg
  pH at 22° C.: 7.37
  pH at 37° C.: 7.14
  pO2 at 37° C.: 189.7 mm Hg
[2]; 110 μM, Pre-UV
  Glucose: 15.9 mmol/L
  LDH: 12.4 LDH IU/10^11 platelets
  Lactate: 5.3 mmol/L
  Platelet counts: 1209 x10^3 cells/μL
  Platelet lysis: 4.61%
  pCO2 at 37° C.: 51.8 mm Hg
  pH at 22° C.: 7.36
  pH at 37° C.: 7.13
  pO2 at 37° C.: 88.6 mm Hg
